We go through one compound from patent US20120225862A1, “HETEROARYL BENZAMIDES, COMPOSITIONS AND METHODS OF USE” (AUCKLAND UNIVSERVICES LIMITED, priority 2009, published 2012).

Experiment [1] concerns RCC4. In words: Necrotic cell death by trypan blue, RCC4. In kind it is cell-based, human. Particulars: 3 days, 5 μM, FIG. 2F. The method, then:
(§1) For 2,3-bis[2-methoxy-4-nitro-5-sulfophenyl]-2H-tetrazolium-5-carboxanilide (XTT) assays, five thousand cells were plated in 96-well plates. The next day, vehicle (DMSO) or drug was added by serial dilution. Four days later, media were aspirated, XTT solution (0.3 mg/ml of XTT (Sigma), 2.65 mg/ml N-methyl dibenxopyrazine methyl sulfate (Simga) in phenol red-free media) was added, and the plates were incubated at 37° C. for 1-2 hours. Metabolism of XTT was quantified by measuring the absorbance at 450 nm. IC50s were calculated using linear interpolation. For clonogenic survival assays, three hundred cells were plated per 60 mm tissue culture dish. The cells were allowed to attach overnight and then treated with vehicle or drug for 14 days. Colonies were fixed and stained with crystal violet (0.1% crystal violet in 95% ethanol). All conditions were measured in triplicate and each experiment was done in duplicate or triplicate. To determine necrosis, cells were treated with drug for a given time point. Media and cells were collected, centrifugated, and resuspended in 0.4% trypan blue (Invitrogen). Live and dead cells were counted on a hematocytometer.

The test system of experiment [2] is RCC4/VHL. As to the kind of experiment: 3H-2-deoxyglucose uptake, RCC4/VHL. It counts as cell-based, human. The note with it: 5 μM. The protocol:
One hundred thousand cells were plated into 6-well plates. The following day, the cells were treated with vehicle or drug and incubated for the indicated time. Cells were washed twice in phosphate buffered saline and low glucose media was added for 30 minutes. Cells were then incubated with 0.5 microCi of tritiated-2-deoxyglucose and incubated for an hour at 37° C. Cells were washed twice in PBS and then lysed in 0.2 N NaOH and 0.2% SDS. Lysates were transferred to scintillation tubes with scintillation fluid and quantified by scintillation counter.
One hundred thousand cells were plated per well in a six-well plate. The next day, cells were treated with the indicated concentration of drug and incubated for the indicated time. Cells were then washed twice with phosphate-buffered saline, incubated in low-glucose medium for 30 minutes, and ^3H-2-deoxyglucose (0.5 μCi) was added in 1 ml of glucose-free media for an additional hour. Cells were washed twice in PBS and lysed (0.2 N NaOH and 0.2% sodium dodecyl sulfate). Glucose uptake was quantified with a scintillation counter.

The next experiment deals with T1, CaMKI (Homo sapiens, UniProt Q14012).
T1 construct: purchased Millipore (KinaseProfiler service)
T1 sequence (Q14012 whole entry): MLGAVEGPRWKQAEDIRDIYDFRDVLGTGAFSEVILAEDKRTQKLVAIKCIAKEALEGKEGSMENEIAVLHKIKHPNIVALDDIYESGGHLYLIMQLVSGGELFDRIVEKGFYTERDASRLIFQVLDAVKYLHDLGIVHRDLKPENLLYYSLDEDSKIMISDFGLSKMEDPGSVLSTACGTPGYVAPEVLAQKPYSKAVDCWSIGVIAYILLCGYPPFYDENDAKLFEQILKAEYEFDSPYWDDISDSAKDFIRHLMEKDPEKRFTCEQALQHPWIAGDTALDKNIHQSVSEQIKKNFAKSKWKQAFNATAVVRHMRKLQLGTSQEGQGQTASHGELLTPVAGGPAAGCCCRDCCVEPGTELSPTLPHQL
In words: In vitro kinase activity (Millipore KinaseProfiler): CaMKI. It counts as biochemical. The note with it: no head or unit printed. The method, then: (§2) All cells were grown in DMEM+10% FCS. ACHN and ACHN shVHL were a kind gift from George V. Thomas (UCLA). HIF overexpressing clones were described previously. Transfection of RNA oligos were performed with DnarmaFECT Reagent 1 (Dharmcon), according to manufacturer's directions. ON-TARGETplus SMART pools against HIF-1β/ARNT were purchased from Dharmacon. Glut1 was detected with anti-GLUT1 antibody from NeoMarkers/LabVision/Fisher. Pyruvate/lactate levels and hexokinase activity were both measured by fluorometric assay (BioVision and Sigma-Aldrich, respectively). ATP levels were measured by bioluminescence assay (ATP Determination Kit from Molecular Probes/Invitrogen). In vitro kinase activities were performed by Millipore KinaseProfiler. Affi-Gel 10 (BioRad) activated affinity media was coupled to analogs to generate immobilized affinity linkers.
(§3) We next wanted to investigate the differential glucose uptake between RCCs with and without VHL treated with compound 47 that subsequently lead to the selective death of VHL-deficient cells. We first examined the message levels of the two main glucose transporters, GLUT1 and GLUT2 by quantitative real-time PCR. GLUT1 is an inducible, high-affinity glucose transporter, while GLUT2 is the glucose transporter responsible for basal glucose uptake. […] Cells deficient in VHL had very low levels of GLUT2 that could barely be detected (FIG. 3J). […]

The subject of experiment [3] is RCC4/VHL. In words: Necrotic cell death by trypan blue, RCC4/VHL. In kind it is cell-based, human. Particulars: 3 days, 5 μM, FIG. 2F. The protocol: as §1
The target of another experiment is T2, SAPK2a (Homo sapiens, UniProt Q16539).
T2 construct: purchased Millipore (KinaseProfiler service)
T2 sequence (Q16539 whole entry): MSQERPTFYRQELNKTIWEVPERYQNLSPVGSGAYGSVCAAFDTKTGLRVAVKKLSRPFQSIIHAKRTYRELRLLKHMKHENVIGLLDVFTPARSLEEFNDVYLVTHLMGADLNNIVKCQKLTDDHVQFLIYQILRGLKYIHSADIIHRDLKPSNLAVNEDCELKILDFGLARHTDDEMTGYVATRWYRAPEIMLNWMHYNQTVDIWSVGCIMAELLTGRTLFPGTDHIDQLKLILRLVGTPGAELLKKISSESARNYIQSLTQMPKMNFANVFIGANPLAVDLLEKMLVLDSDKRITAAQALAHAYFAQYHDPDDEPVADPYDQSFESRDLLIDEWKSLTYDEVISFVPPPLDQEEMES
In words: In vitro kinase activity (Millipore KinaseProfiler): SAPK2a. It counts as biochemical. Particulars: no head or unit printed. The protocol:
as §2, §3

Another experiment concerns the target T3, JNK1α1 (Homo sapiens, UniProt P45983).
T3 construct: purchased Millipore (KinaseProfiler service)
As to the kind of experiment: In vitro kinase activity (Millipore KinaseProfiler): JNK1α1. It counts as biochemical. Particulars: no head or unit printed. The method, then: as §2, §3

The test system of experiment [4] is RCC4. As to the kind of experiment: Lactate production (glycolysis), RCC4. Particulars: Homo sapiens; RCC4, 5 μM, compared to control-treated cells; read-out: inhibition of lactate production in VHL-deficient cells. It counts as cell-based. The protocol:
as §2
As the central mediator of oxygen homeostasis, HIF plays an important role in the cellular adaptation to low oxygen conditions through the regulation of genes involved in metabolism and energy production. Inactivation of VHL results in an increase in the half-life of HIF protein. […] To examine whether this compound alters the rate of glycolysis in VHL-deficient cells, we measured the intracellular production of lactate, which is rapidly converted from pyruvate, the end-product of glycolysis. […]

A further experiment has as its target T4, IGF-1R (Homo sapiens, UniProt P08069).
T4 construct: purchased Millipore (KinaseProfiler service)
As to the kind of experiment: In vitro kinase activity (Millipore KinaseProfiler): IGF-1R. In kind it is biochemical. Particulars: no head or unit printed. The protocol: as §2, §3

A further experiment addresses T5, mTOR (Homo sapiens, UniProt P42345).
T5 construct: purchased Millipore (KinaseProfiler service)
As to the kind of experiment: In vitro kinase activity (Millipore KinaseProfiler): mTOR. It counts as biochemical. Particulars: no head or unit printed. The protocol:
as §2, §3

For the next experiment, the system named is 50 different kinases. As to the kind of experiment: In vitro kinase panel (Millipore KinaseProfiler), summary. In kind it is biochemical. The protocol: as §2, §3
For another experiment, the system named is ACHN shVHL. In words: Clonogenic survival, ACHN with shRNA to VHL. In kind it is cell-based, human. The note with it: FIG. 2E.

T4 sequence (P08069 31-1367, species assumed): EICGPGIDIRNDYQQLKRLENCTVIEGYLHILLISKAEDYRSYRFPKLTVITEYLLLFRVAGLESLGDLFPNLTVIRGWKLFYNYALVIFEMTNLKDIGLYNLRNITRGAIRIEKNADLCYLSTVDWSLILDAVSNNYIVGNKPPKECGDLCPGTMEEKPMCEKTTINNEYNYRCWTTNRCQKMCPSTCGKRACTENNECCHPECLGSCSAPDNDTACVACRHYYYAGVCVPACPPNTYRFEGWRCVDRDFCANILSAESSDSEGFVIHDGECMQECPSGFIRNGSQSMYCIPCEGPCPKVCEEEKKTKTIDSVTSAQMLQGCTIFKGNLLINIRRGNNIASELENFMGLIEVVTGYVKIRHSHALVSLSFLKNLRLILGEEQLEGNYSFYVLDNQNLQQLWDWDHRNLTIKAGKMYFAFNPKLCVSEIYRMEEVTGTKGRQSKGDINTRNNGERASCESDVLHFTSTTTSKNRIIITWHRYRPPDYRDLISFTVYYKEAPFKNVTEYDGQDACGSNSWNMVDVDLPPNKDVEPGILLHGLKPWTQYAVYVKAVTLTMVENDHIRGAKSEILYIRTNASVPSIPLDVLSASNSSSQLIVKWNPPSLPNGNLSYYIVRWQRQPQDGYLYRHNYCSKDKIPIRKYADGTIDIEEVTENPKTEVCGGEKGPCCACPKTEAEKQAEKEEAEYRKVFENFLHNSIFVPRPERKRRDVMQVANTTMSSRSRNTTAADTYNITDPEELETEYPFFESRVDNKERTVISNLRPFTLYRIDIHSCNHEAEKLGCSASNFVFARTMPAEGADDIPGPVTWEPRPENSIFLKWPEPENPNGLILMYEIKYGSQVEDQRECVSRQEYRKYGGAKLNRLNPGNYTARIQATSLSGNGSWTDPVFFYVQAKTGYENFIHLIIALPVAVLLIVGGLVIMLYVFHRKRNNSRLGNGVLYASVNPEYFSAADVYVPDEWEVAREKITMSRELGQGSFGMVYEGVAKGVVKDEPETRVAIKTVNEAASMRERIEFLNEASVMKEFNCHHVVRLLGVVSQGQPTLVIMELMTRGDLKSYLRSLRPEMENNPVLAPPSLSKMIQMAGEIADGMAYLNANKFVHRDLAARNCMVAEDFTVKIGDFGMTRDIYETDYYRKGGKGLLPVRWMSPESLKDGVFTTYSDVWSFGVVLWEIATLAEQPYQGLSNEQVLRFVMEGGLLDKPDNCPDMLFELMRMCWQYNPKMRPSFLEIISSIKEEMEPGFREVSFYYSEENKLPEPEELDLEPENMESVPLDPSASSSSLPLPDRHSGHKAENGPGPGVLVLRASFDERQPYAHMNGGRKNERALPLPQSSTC
T3 sequence (P45983 1-384 isoform P45983-2, species assumed): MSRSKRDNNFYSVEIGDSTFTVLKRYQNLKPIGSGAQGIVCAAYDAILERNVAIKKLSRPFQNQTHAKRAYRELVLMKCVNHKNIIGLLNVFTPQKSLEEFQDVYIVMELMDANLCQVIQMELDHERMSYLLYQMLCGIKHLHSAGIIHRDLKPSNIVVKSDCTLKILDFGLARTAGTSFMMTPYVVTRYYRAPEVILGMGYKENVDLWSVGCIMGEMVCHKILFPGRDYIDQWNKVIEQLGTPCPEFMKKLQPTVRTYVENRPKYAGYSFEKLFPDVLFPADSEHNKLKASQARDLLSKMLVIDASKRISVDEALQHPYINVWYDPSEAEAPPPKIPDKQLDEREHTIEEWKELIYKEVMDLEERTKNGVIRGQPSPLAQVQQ

Turning to `CC(C)(C)c1ccc(S(=O)(=O)NCc2ccc(C(=O)Nc3cccnc3)cc2)cc1` [Example 38, 4-((4-tert-Butylphenylsulfonamido)methyl)-N-(pyridin-3-yl)benzamide], the “RCC4 cells exhibiting necrotic cell death” value in the experiment on RCC4 [1] is on record as “greater than 80%”. Also, in the experiment with RCC4/VHL [2], the “glucose uptake in RCC4/VHL cells” value was “unaffected”. Also, the CaMKI kinase activity on CaMKI stood at 87. For the same compound, the “necrotic cell death in RCC4/VHL” value with RCC4/VHL [3] is on record as “relatively insensitive”. In addition, the SAPK2a kinase activity at SAPK2a amounted to 127. Further, the JNK1α1 kinase activity on JNK1α1 is 101. Besides, the inhibition at 5 µM in the experiment on RCC4 [4] is ~60%. The same compound displayed an IGF-1R kinase activity on IGF-1R of 108. Further, the mTOR kinase activity at mTOR was 101. For the same compound, in the experiment with 50 different kinases, the “decrease in activity of 50 different kinases” value is “no significant decrease”. Also, the “sensitivity of ACHN cells with VHL silenced by shRNA (clonogenic survival)” value in the experiment on ACHN shVHL is recorded as “sensitive”.
